“Also recorded” adds a separate entry of the source.
How the values were obtained:
human DHODH = human DHODH (Homo sapiens, UniProt Q02127); test: Inhibition of human DHODH activity assay (DCIP chromogen reduction); assay type: biochemical; conditions: enzyme extracts, 10 min at room temperature, absorbance at 600 nm, duplicate; read-out: hDHODH IC50
Procedure: DHODH activity and its inhibition were studied using a chromogen reduction assay with DCIP (2,6-dichlorophenol-indophenol).
Enzyme extracts (8 μl, ˜1.5 μg of human protein) were incubated in 96-well plates. The assay mixture (200 μl) contained 200 μM CoQD, 100 μM L-DHO, 120 μM DCIP in the assay buffer (100 mM HEPES pH 8.0, 150 mM NaCl, 10% Glicerol, 0.05% Triton X-100) and 2 μl of test compound. The compounds were dissolved in DMSO at a stock concentration of 1 mM, and tested at different concentrations varying from 10 μM to 1 pM to calculate an IC50 (concentration of inhibitor required for 50% of inhibition).
The reaction was initiated by adding the enzyme and then incubated for 10 min at room temperature before measuring DCIP reduction by counting a decrease in absorbance at 600 nm using standard instrumentation (Spectramax).
All reactions were carried out in duplicate and graphs, determining IC50 values for each compound, were plotted using the ABase software.

[1] = test system: rat adjuvant-induced arthritis model (AIA); test: Efficacy assay in rat adjuvant-induced arthritis model (AIA), curative protocol; assay type: in vivo, Wistar rats; conditions: arthritic rats, oral once a day for 10 days, compound 20 10 mg/Kg/day, MTX 0.05 mg/Kg/day, AUC days 10-21 versus vehicle, mean and SEM
Procedure: The effect of DHODH inhibitor compounds were tested in combination with methotrexate (0.05 mg/Kg/day) in the rat adjuvant-induced arthritis model (AIA) in animals with established disease (curative protocol). Briefly, Complete Freund Adjuvant (CFA) was injected into the left hind footpad of Wistar rats, and 10 days later the swelling of the two rear paws was measured with a plethysnnometer. […] Compounds were administered orally once a day for 10 days and paw volumes were determined every two days up to day 21.
The percentage of inhibition for every group was calculated versus values from vehicle-treated rats. The table below depicts the mean and SEM of one experiment using 6 animals per group.

Swiss mice = test: Acute hepatotoxicity assay, plasma liver markers; assay type: in vivo; conditions: for ALT plasma level / AST plasma level / BIL (total bilirubin) plasma level: Swiss mice, single 100 mg/kg intraperitoneal, 24 hours later
Procedure: Acute hepatotoxicity assays were performed in Swiss mice. Animals received a single administration of either vehicle, or 100 mg/kg of teriflunomide or a compound of the present invention (compounds from the list indicated previously) by intraperitoneal route. Twenty-four hours later, animals were sacrificed and the levels of liver markers AST (aspartate aminotransferase), ALT (alanine aminotransferase) and BIL (total bilirubin) in plasma were determined.

human DHODH, sequence (Q02127 whole entry): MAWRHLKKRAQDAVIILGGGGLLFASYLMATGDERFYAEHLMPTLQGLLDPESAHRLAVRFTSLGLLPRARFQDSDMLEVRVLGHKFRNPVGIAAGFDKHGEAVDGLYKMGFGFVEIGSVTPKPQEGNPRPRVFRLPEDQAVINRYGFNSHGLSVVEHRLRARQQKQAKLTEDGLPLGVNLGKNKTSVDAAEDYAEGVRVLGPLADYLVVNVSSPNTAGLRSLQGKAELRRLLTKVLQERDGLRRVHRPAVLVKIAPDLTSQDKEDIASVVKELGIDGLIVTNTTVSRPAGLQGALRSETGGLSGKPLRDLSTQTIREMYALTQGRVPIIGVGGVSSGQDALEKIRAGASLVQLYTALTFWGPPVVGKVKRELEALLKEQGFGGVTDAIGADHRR

Row | Structure (SMILES) | IC50 (human DHODH) [µM] | % inhibition of the inflammation (AUC) Right paw [1] [%] | ALT plasma level (Swiss mice) [IU/I] | AST plasma level (Swiss mice) [IU/I] | BIL (total bilirubin) plasma level (Swiss mice) [mg/dL] | change in plasma liver markers (AST, ALT, BIL) compared to vehicle-treated mice, in words (Swiss mice; mice, intraperitoneal route, 100 mg/kg)
1 | Cc1ccc(Nc2cnc(-c3ccccc3)c(C)c2)c(C(=O)O)c1 [Compound 60, 5-Methyl-2-(5-methyl-6-phenylpyridin-3-ylamino)benzoic acid] | 0.053 | – | 70 | 131 | 0.09 | –
2 | Cc1ccc(Nc2cnc(-c3ccccc3Cl)c(C)c2)c(C(=O)O)c1 [Compound 71, 2-(6-(2-Chlorophenyl)-5-methylpyridin-3-ylamino)-5-methylbenzoic acid] | 0.014 | – | 72 | 95 | 0.05 | –
3 | Cc1ccc(Nc2cnc(-c3ccccc3F)c(C)c2)c(C(=O)O)c1 [Compound 97, 2-(6-(2-Fluorophenyl)-5-methylpyridin-3-ylamino)-5-methylbenzoic acid] | 0.005 | – | 55 | 92 | 0.11 | –
4 | Cc1ccc(Nc2ccc(-c3c(F)cccc3F)nc2)c(C(=O)O)c1 [Compound 119, 2-(6-(2,6-Difluorophenyl)pyridin-3-ylamino)-5-methylbenzoic acid] | 0.019 | – | 69 | 96 | 0.08 | –
5 | Cc1ccc(Nc2ccc(-c3ccc(F)cc3F)nc2)c(C(=O)O)c1 [Compound 141, 2-(6-(2,4-difluorophenyl)pyridin-3-ylamino)-5-methylbenzoic acid] | 0.146 | – | – | – | – | –
6 | Cc1ccc(Nc2ccc(-c3c(F)ccc(F)c3F)nc2)c(C(=O)O)c1 [Compound 144, 2-(6-(2,3,6-trifluorophenyl)pyridin-3-ylamino)-5-methylbenzoic acid] | 0.077 | – | – | – | – | –
7 | COc1ccc(F)cc1-c1ncc(Nc2ccc(C)cc2C(=O)O)cc1C [Compound 148, 2-(6-(5-fluoro-2-methoxyphenyl)-5-methylpyridin-3-ylamino)-5-methylbenzoic acid] | 0.046 | – | – | – | – | –
8 | CN(Cc1cnc2nc(N)nc(N)c2n1)c1ccc(C(=O)N[C@@H](CCC(=O)O)C(=O)O)cc1 [MTX, Methotrexate] | – | 33 ± 9 | – | – | – | –
9 | C/C(O)=C(\C#N)C(=O)Nc1ccc(C(F)(F)F)cc1 [Teriflunomide, reference compound] | – | – | 440 | 655 | 0.46 | dramatic increase; also recorded: drastic increase

Continued, in another order:

Row | IC50 (human DHODH) [µM] | Structure (SMILES) | % inhibition of the inflammation (AUC) Right paw [1] [%] | ALT plasma level (Swiss mice) [IU/I] | AST plasma level (Swiss mice) [IU/I] | BIL (total bilirubin) plasma level (Swiss mice) [mg/dL] | change in plasma liver markers (AST, ALT, BIL) compared to vehicle-treated mice, in words (Swiss mice; mice, intraperitoneal route, 100 mg/kg)
10 | 0.014 | O=C(O)c1cc(C2CC2)ccc1Nc1cnc(-c2c(F)cccc2F)nc1 [Compound 20, 5-cyclopropyl-2-(2-(2,6-difluorophenyl)pyrimidin-5-ylamino)benzoic acid] | 32 ± 8 | 45 | 98 | 0.07 | –
11 | 0.032 | Cc1ccc(Nc2ccc(-c3ccccc3Cl)nc2)c(C(=O)O)c1 [Compound 85, 2-(6-(2-Chlorophenyl)pyridin-3-ylamino)-5-methylbenzoic acid] | – | 43 | 83 | 0.13 | –
12 | 0.003 | O=C(O)c1cc(C2CC2)ccc1Nc1cnc(-c2ccccc2Cl)nc1 [Compound 121, 2-(2-(2-Chlorophenyl)pyrimidin-5-ylamino)-5-cyclopropylbenzoic acid] | – | 75 | 105 | 0.05 | –
13 | 0.057 | Cc1ccc(Nc2cnc(-c3ccccc3Cl)nc2)c(C(=O)O)c1 [Compound 123, 2-(2-(2-Chlorophenyl)pyrimidin-5-ylamino)-5-methylbenzoic acid] | – | 89 | 113 | 0.06 | –
14 | 0.01 | O=C(O)c1cc(C2CC2)ccc1Nc1cnc(-c2ccccc2F)nc1 [Compound 127, 5-Cyclopropyl-2-(2-(2-fluorophenyl)pyrimidin-5-ylamino)benzoic acid] | – | 56 | 72 | 0.07 | –
15 | 0.021 | O=C(O)c1cc(C2CC2)ccc1Nc1cnc(-c2cc(OC(F)(F)F)ccc2F)nc1 [Compound 135, 2-(2-(2-fluoro-5-trifluoromethoxyphenyl)pyrimidin-5-ylamino)-5-cyclopropylbenzoic acid] | – | – | – | – | –
16 | 0.008 | O=C(O)c1cc(C2CC2)ccc1Nc1ccc(-c2ccccc2F)nc1 [Compound 138, 2-(6-(2-fluorophenyl)pyridin-3-ylamino)-5-cyclopropylbenzoic acid] | – | – | – | – | –

Source: patent publication US20110280831A1, “COMBINATIONS COMPRISING METHOTREXATE AND DHODH INHIBITORS” (priority 2009, published 2011)
